From the NIST ThermoML archive (doi:10.1021/je200628n)
Numbers after ± are expanded uncertainties.

Experiment: activity coefficient (dimensionless); of the first substance listed, at infinite dilution; xn = mol fraction of the nth substance listed
Details: 101 kPa, Liquid, Chromatography, x1 = 0

| SMILES | activity coefficient (338.2 K) | activity coefficient (348.15 K) | activity coefficient (353.22 K) | activity coefficient (328.15 K) | activity coefficient (338.15 K) | activity coefficient (343.15 K) | activity coefficient (348.25 K) | activity coefficient (353.15 K) | activity coefficient (358.25 K) | activity coefficient (363.21 K) | also measured |
| --- | --- | --- | --- | --- | --- | --- | --- | --- | --- | --- | --- |
| C=CCCCCCC [oct-1-ene] + NCCCCCCCCCCN | 4.09 ± 0.21 | 3.65 ± 0.19 | 3.45 ± 0.18 | – | – | – | – | – | – | – | – |
| C=CCCCCCC [oct-1-ene] + NCCCCCCCCN | – | 3 ± 0.15 | – | 3.94 ± 0.2 | 3.38 ± 0.17 | 3.16 ± 0.16 | – | – | – | – | – |
| CCCCCCCC [octane] + NCCCCCCCCCCCCN | – | – | – | – | – | – | 5.54 ± 0.28 | 5.43 ± 0.28 | 5.27 ± 0.27 | 5.19 ± 0.27 | – |
| CCCCCCCC [octane] + NCCCCCCCCCCN | 5.24 ± 0.27 | 4.79 ± 0.25 | 4.55 ± 0.23 | – | – | – | – | – | – | – | – |
| CCCCCCCC [octane] + NCCCCCCCCN | – | 4.13 ± 0.21 | – | 4.73 ± 0.24 | 4.4 ± 0.23 | 4.24 ± 0.22 | – | – | – | – | – |
| CCCCC [pentane] + NCCCCCCCCCCCCN | – | – | – | – | – | – | 4.76 ± 0.24 | 4.74 ± 0.24 | 4.68 ± 0.24 | 4.63 ± 0.24 | – |
| CCCCC [pentane] + NCCCCCCCCCCN | – | – | – | – | – | – | – | – | – | – | activity coefficient (3.9 K): 353 ± 18; activity coefficient (4.022 K): 348 ± 18; activity coefficient (4.331 K): 338 ± 18 |
| CCCCC [pentane] + NCCCCCCCCN | – | – | – | – | – | – | 1.16 ± 0.053 | – | – | – | activity coefficient (328.21 K): 1.37 ± 0.065; activity coefficient (338.23 K): 1.27 ± 0.059; activity coefficient (343.19 K): 1.22 ± 0.056 |
| CCCO [propan-1-ol] + NCCCCCCCCCCCCN | – | – | – | – | – | – | 0.931 ± 0.042 | 0.975 ± 0.043 | 1.04 ± 0.046 | 1.09 ± 0.049 | – |
| CCCO [propan-1-ol] + NCCCCCCCCCCN | 0.622 ± 0.033 | 0.731 ± 0.036 | 0.772 ± 0.037 | – | – | – | – | – | – | – | – |
| CCCO [propan-1-ol] + NCCCCCCCCN | – | 0.614 ± 0.033 | – | 0.567 ± 0.032 | 0.58 ± 0.032 | 0.593 ± 0.032 | – | – | – | – | – |
| CCCOC(C)=O [propyl ethanoate] + NCCCCCCCCCCCCN | – | – | – | – | – | – | 1.55 ± 0.076 | 1.45 ± 0.07 | 1.35 ± 0.064 | 1.26 ± 0.058 | – |
| CCCOC(C)=O [propyl ethanoate] + NCCCCCCCCCCN | 1.39 ± 0.066 | 1.11 ± 0.05 | 0.991 ± 0.044 | – | – | – | – | – | – | – | – |
| CCCOC(C)=O [propyl ethanoate] + NCCCCCCCCN | – | 0.929 ± 0.042 | – | 1.29 ± 0.06 | 1.08 ± 0.048 | 0.997 ± 0.044 | – | – | – | – | – |
| ClC(Cl)(Cl)Cl [tetrachloromethane] + NCCCCCCCCCCCCN | – | – | – | – | – | – | 2.37 ± 0.12 | 2.28 ± 0.12 | 2.06 ± 0.11 | 1.98 ± 0.1 | – |
| ClC(Cl)(Cl)Cl [tetrachloromethane] + NCCCCCCCCCCN | 2.25 ± 0.12 | 2.05 ± 0.1 | 1.98 ± 0.1 | – | – | – | – | – | – | – | – |
| ClC(Cl)(Cl)Cl [tetrachloromethane] + NCCCCCCCCN | – | 1.37 ± 0.065 | – | 2.06 ± 0.11 | 1.66 ± 0.082 | 1.51 ± 0.073 | – | – | – | – | – |
| Cc1ccccc1 [toluene] + NCCCCCCCCCCCCN | – | – | – | – | – | – | 2.6 ± 0.13 | 2.51 ± 0.13 | 2.42 ± 0.12 | 2.33 ± 0.12 | – |
| Cc1ccccc1 [toluene] + NCCCCCCCCCCN | 2.52 ± 0.13 | 2.23 ± 0.12 | 2.13 ± 0.11 | – | – | – | – | – | – | – | – |
| Cc1ccccc1 [toluene] + NCCCCCCCCN | – | 2.07 ± 0.11 | – | 2.39 ± 0.12 | 2.17 ± 0.11 | 2.11 ± 0.11 | – | – | – | – | – |
